How the values were obtained:
[1] = target: T1, hNaV1.2 (SCN2A) (Homo sapiens, UniProt Q99250); test: Use-dependent inhibition of the CNS NaV1.2 sodium channel; format: cell-based; conditions: HEK-293, % inhibition, 25 Hz; for inhibition at 1 µM: use-dependent block at 1 uM, read-out: Nav1.2 UDB 25 Hz 1 uM; for inhibition at 10 µM: use-dependent block at 10 uM, read-out: Nav1.2 UDB 25 Hz 10 uM
T1 construct: expressed in transfected cells
Method: HEK-293 cells stably expressing wild-type (WT) hNaV1.2 (SCN2A NCBI # NM_021007.2, SCN1B NCBI # NM_001037.4, SCN2B NCBI # NM_004588.2) were used to record INa. Cells are maintained with standard tissue culture procedures and stable channel expression is maintained with 800 ug/mL G418 and 3 ug/mL Puromycin in the culture medium. Unless otherwise noted, all reagents are purchased from Sigma-Aldrich (St Louis, Mo., U.S.A.).
Assays measuring Use-Dependent Block (UDB) of NaV1.2 are performed on an automated electrophysiology platform, QPatch 16X or QPatch HT (Sophion Bioscience, Copenhagen, Denmark), using the whole cell patch clamp technique to measure currents through the cell membrane. Series resistance compensation is set to 100% and series resistance and whole-cell compensation are performed automatically. Currents stored in the Sophion Bioscience Oracle database (Sophion Bioscience, Copenhagen, Denmark). Analysis is performed using QPatch Assay software and data are compiled in Excel 2010 (Microsoft, Seattle, Wash., U.S.A.). The internal (pipette) solution consists of (in mM) 105 CsF, 10 NaF, 20 CsCl, 2 EGTA, 10 HEPES, 10 Dextrose with a pH of 7.35 and osmolarity of 300 mOsmol/kg. The external (bath) solution contains in (mM): 145 NaCl, 4 KCl, 1.8 CaCl2, 1 MgCl2, 10 dextrose, 10 HEPES, with a pH of 7.35 and osmolarity of 310 mOsmol/kg. Experiments are carried out at 23-25° C.
(§1) Compound stocks are routinely made by the Gilead Sample Bank in vials to 10 mM in dimethyl sulfoxide (DMSO). In some cases, when compounds are not soluble in DMSO, they are made in 100% ethanol. Stocks are sonicated as necessary. […]
Cells are allowed to stabilize for 10 min after establishment of the whole-cell configuration before current is measured. The test compound is applied 2 times at 60 second intervals. After the second compound addition, a 200 second wait period was imposed to allow for equilibration. Leak currents are subtracted by using an online P/4 procedure and all currents are low-pass Bessel filtered at 5 kHz and digitized at […].
Results are presented as mean percentage inhibition.
Use-dependent block of NaV1.2 peak current is measured during pulse number 20 of a voltage pulse train (0 mV, 20 ms, 20 pulses, 25 Hz) from a holding potential of −120 mV.
Currents are normalized to the peak current recorded in response to the first pulse in each frequency train. The voltage protocol for UDB was performed in the absence and presence of compound and percentage inhibition was calculated with respect to the compound free condition.
Data analysis is performed using QPatch Assay Software 4.0, and Excel 2002 (Microsoft, Seattle, Wash., U.S.A.).

[2] = target: hNaV1.1 (SCN1A) (Homo sapiens, UniProt P35498); test: Use-dependent inhibition of the CNS NaV1.1 sodium channel; format: cell-based; conditions: % inhibition, 25 Hz; for inhibition at 1 µM: use-dependent block at 1 uM, read-out: Nav1.1 UDB 25 Hz 1 uM; for inhibition at 10 µM: use-dependent block at 10 uM, read-out: Nav1.1 UDB 25 Hz 10 uM
Method: HEK-293 cells stably expressing wild-type (WT) hNaV1.1 (SCN1A, NCBI# AB09354) were obtained from Millipore (Cat. # CYL3009) were used to record INa. Cells are maintained with standard tissue culture procedures and stable channel expression is maintained with 400 ug/mL G418 in the culture medium. Unless otherwise noted, all reagents are purchased from Sigma-Aldrich (St Louis, Mo., U.S.A.).
Assays measuring Use-Dependent Block (UDB) of NaV1.2 are performed on an automated electrophysiology platform, QPatch 16X or QPatch HT (Sophion Bioscience, Copenhagen, Denmark), using the whole cell patch clamp technique to measure currents through the cell membrane. Series resistance compensation is set to 100% and series resistance and whole-cell compensation are performed automatically. Currents stored in the Sophion Bioscience Oracle database (Sophion Bioscience, Copenhagen, Denmark). Analysis is performed using QPatch Assay software and data are compiled in Excel 2010 (Microsoft, Seattle, Wash., U.S.A.).
The internal (pipette) solution consists of (in mM) 105 CsF, 10 NaF, 20 CsCl, 2 EGTA, 10 HEPES, 10 Dextrose with a pH of 7.35 and osmolarity of 300 mOsmol/kg. The external (bath) solution contains in (mM): 145 NaCl, 4 KCl, 1.8 CaCl2, 1 MgCl2, 10 dextrose, 10 HEPES, with a pH of 7.35 and osmolarity of 310 mOsmol/kg. Experiments are carried out at 23-25° C.
as §1
Cells are allowed to stabilize for 10 min after establishment of the whole-cell configuration before current is measured. The test compound is applied 2 times at 60 second intervals. After the second compound addition, a 200 second wait period was imposed to allow for equilibration.
Leak currents are subtracted by using an online P/4 procedure and all currents are low-pass Bessel filtered at 5 kHz and digitized at […].
Use-dependent block of NaV1.2 peak current is measured during pulse number 20 of a voltage pulse train (0 mV, 20 ms, 20 pulses, 25 Hz) from a holding potential of −120 mV. Currents are normalized to the peak current recorded in response to the first pulse in each frequency train. The voltage protocol for UDB was performed in the absence and presence of compound and percentage inhibition was calculated with respect to the compound free condition. Results are presented as mean percentage inhibition and data analysis is performed using QPatch Assay Software 4.0, and Excel 2002 (Microsoft, Seattle, Wash., U.S.A.).

T1 sequence (Q99250 whole entry): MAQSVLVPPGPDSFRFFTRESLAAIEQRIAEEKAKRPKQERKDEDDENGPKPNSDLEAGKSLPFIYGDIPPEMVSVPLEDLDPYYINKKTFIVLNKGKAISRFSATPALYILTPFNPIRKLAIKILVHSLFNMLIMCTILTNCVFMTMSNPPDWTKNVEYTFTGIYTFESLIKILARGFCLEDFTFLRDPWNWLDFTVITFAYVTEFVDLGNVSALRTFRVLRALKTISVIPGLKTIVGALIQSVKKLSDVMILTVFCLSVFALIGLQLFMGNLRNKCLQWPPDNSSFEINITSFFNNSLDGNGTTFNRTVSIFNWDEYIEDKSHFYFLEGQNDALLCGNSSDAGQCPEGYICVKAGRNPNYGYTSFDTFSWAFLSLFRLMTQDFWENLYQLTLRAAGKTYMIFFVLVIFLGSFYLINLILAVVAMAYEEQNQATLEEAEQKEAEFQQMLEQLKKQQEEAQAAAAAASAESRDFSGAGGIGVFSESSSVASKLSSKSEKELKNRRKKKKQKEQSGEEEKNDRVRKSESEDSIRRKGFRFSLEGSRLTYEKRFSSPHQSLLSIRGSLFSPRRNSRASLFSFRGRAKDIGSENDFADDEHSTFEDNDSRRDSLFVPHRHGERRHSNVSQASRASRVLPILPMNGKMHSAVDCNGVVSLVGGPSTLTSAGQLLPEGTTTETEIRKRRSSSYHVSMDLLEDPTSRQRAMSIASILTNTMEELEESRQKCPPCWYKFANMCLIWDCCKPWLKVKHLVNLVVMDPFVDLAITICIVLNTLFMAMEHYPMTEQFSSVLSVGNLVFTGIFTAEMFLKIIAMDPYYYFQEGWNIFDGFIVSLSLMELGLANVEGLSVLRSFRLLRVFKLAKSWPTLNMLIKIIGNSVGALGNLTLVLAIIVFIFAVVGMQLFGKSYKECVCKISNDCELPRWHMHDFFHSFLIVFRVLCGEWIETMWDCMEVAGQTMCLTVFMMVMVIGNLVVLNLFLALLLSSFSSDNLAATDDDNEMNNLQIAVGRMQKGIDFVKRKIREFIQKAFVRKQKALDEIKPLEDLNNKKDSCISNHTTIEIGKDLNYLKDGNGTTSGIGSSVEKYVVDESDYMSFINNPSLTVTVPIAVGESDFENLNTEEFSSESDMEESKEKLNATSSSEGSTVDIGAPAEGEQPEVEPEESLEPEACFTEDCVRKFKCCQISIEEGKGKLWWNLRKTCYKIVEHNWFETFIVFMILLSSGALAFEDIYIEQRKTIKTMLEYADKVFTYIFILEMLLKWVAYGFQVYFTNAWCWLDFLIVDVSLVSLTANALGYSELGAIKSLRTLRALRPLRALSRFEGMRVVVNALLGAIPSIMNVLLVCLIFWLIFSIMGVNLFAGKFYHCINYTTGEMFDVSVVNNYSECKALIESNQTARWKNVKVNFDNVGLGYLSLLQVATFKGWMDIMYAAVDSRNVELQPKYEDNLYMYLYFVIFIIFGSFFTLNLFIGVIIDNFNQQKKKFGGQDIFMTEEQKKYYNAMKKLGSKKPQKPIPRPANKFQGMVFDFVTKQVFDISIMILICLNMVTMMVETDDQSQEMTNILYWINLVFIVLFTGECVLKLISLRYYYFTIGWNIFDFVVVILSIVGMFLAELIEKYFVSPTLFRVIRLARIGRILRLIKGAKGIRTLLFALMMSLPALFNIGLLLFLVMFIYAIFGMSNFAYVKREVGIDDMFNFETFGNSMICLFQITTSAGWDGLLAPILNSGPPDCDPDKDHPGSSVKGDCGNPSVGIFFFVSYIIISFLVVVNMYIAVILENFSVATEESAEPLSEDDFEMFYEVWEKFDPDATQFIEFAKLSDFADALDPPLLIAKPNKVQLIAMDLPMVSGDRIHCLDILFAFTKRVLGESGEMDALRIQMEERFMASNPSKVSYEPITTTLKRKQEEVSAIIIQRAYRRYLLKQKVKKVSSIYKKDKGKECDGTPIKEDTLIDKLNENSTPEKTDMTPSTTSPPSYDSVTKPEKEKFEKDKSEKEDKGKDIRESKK
T1 sequence (Q07699 19-218 partner): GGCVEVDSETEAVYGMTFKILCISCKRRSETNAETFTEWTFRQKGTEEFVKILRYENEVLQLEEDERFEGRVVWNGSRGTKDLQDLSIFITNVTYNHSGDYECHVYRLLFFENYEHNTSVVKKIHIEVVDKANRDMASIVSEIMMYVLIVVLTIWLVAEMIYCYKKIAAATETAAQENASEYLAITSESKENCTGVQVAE
T1 sequence (O60939 30-215 partner): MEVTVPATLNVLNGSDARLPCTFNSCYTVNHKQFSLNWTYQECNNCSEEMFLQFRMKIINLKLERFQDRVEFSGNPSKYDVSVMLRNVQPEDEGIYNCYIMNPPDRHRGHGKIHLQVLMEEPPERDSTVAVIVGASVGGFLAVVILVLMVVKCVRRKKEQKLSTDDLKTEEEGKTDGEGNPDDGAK

Structure (SMILES) | inhibition at 1 µM [1] | inhibition at 10 µM [1] | inhibition at 1 µM [2] | inhibition at 10 µM [2]
Cc1cnc(CN2Cc3cc(-c4ccc(C(F)(F)F)cc4C)ccc3OC2=O)nc1 [Example 43, 6-(2-methyl-4-(trifluoromethyl)phenyl)-3-((5-methylpyrimidin-2-yl)methyl)-3,4-dihydro-2H-benzo[e][1,3]oxazin-2-one] | < 5% | 48.9% | < 5% | 51.4%
Cc1ccnc(CN2Cc3cc(-c4ccc(OC(F)(F)F)cc4C)ccc3OC2=O)n1 [Example 33, 6-(2-methyl-4-(trifluoromethoxy)phenyl)-3-((4-methylpyrimidin-2-yl)methyl)-3,4-dihydro-2H-benzo[e][1,3]oxazin-2-one] | 17.2% | 55.2% | 5.5% | 61.4%
Cc1csc(CN2Cc3cc(-c4ccc(OC(F)(F)F)c(C)c4)ccc3OC2=O)n1 [Example 54, 6-(3-methyl-4-(trifluoromethoxy)phenyl)-3-((4-methylthiazol-2-yl)methyl)-3,4-dihydro-2H-benzo[e][1,3]oxazin-2-one] | 6.1% | 43.5% | < 5% | 36.7%
Cc1csc(CN2Cc3cc(-c4ccc(Cl)c(Cl)c4)ccc3OC2=O)n1 [Example 56, 6-(3,4-dichlorophenyl)-3-((4-methylthiazol-2-yl)methyl)-3,4-dihydro-2H-benzo[e][1,3]oxazin-2-one] | < 5% | 15.2% | < 5% | 10.7%
Cc1cnc(CN2Cc3cc(-c4ccc(C(F)(F)F)cc4)ccc3OC2=O)nc1 [Example 13, 3-((5-methylpyrimidin-2-yl)methyl)-6-(4-(trifluoromethyl)phenyl)-3,4-dihydro-2H-benzo[e][1,3]oxazin-2-one] | 21.4% | 63.4% | 37.5% | 88.8%
Cc1cnc(CN2Cc3cc(-c4ccc(OC(F)(F)F)cc4)ccc3OC2=O)nc1 [Example 12, 3-((5-methylpyrimidin-2-yl)methyl)-6-(4-(trifluoromethoxy)phenyl)-3,4-dihydro-2H-benzo[e][1,3]oxazin-2-one] | 15.4% | 68.8% | 7.5% | 73.9%
Cc1cc(C(F)(F)F)ccc1-c1ccc2c(c1)CN(Cc1ncccn1)C(=O)O2 [Example 37, 6-(2-methyl-4-(trifluoromethyl)phenyl)-3-(pyrimidin-2-ylmethyl)-3,4-dihydro-2H-benzo[e][1,3]oxazin-2-one] | 7.8% | 27.1% | 7.3% | 67.7%
O=C1Oc2ccc(-c3ccc(OC(F)(F)F)cc3)cc2CN1CCc1ncccn1 [Example 16, 3-(2-(pyrimidin-2-yl)ethyl)-6-(4-(trifluoromethoxy)phenyl)-3,4-dihydro-2H-benzo[e][1,3]oxazin-2-one] | 23.4% | 52.9% | 17.3% | 52.2%
Cc1csc(CN2Cc3cc(-c4ccc(OC(F)(F)F)cc4)ccc3OC2=O)n1 [Example 52, 3-((4-methylthiazol-2-yl)methyl)-6-(4-(trifluoromethoxy)phenyl)-3,4-dihydro-2H-benzo[e][1,3]oxazin-2-one] | 20.8% | 63.7% | 32.9% | 57.6%
O=C1Oc2ccc(-c3ccc(OC(F)(F)F)c(F)c3)cc2CN1Cc1ncccn1 [Example 10, 6-(3-fluoro-4-(trifluoromethoxy)phenyl)-3-(pyrimidin-2-ylmethyl)-3,4-dihydro-2H-benzo[e][1,3]oxazin-2-one] | 30.2% | 75% | 35% | 75.9%
O=C1Oc2ccc(-c3ccc(OC(F)(F)F)cc3F)cc2CN1Cc1ncccn1 [Example 7, 6-(2-fluoro-4-(trifluoromethoxy)phenyl)-3-(pyrimidin-2-ylmethyl)-3,4-dihydro-2H-benzo[e][1,3]oxazin-2-one] | 18% | 56.3% | 5.7% | 42.4%
Cc1csc(CN2Cc3cc(-c4ccc(OC(F)(F)F)cc4F)ccc3OC2=O)n1 [Example 55, 6-(2-fluoro-4-(trifluoromethoxy)phenyl)-3-((4-methylthiazol-2-yl)methyl)-3,4-dihydro-2H-benzo[e][1,3]oxazin-2-one] | 22.6% | 61.8% | < 5% | 55%
CCOc1cc(OC(F)(F)F)ccc1-c1ccc2c(c1)CN(Cc1ncccn1)C(=O)O2 [Example 40, 6-(2-ethoxy-4-(trifluoromethoxy)phenyl)-3-(pyrimidin-2-ylmethyl)-3,4-dihydro-2H-benzo[e][1,3]oxazin-2-one] | 16.7% | 62.5% | 22.6% | 71.3%
CCCOc1cc(C(F)(F)F)ccc1-c1ccc2c(c1)CN(Cc1ncccn1)C(=O)O2 [Example 27, 6-(2-propoxy-4-(trifluoromethyl)phenyl)-3-(pyrimidin-2-ylmethyl)-3,4-dihydro-2H-benzo[e][1,3]oxazin-2-one] | 42.2% | 80.6% | 28.4% | 77.5%
O=C1Oc2ccc(-c3ccc(C(F)(F)F)cc3)cc2CN1CCc1ncccn1 [Example 17, 3-(2-(pyrimidin-2-yl)ethyl)-6-(4-(trifluoromethyl)phenyl)-3,4-dihydro-2H-benzo[e][1,3]oxazin-2-one] | 34.2% | 56.6% | 34.8% | 60.9%
CC1c2cc(-c3ccc(Cl)c(F)c3)ccc2OC(=O)N1Cc1ncccn1 (stereo not shown) [Example 11, 6-(4-chloro-3-fluorophenyl)-4-methyl-3-(pyrimidin-2-ylmethyl)-3,4-dihydro-2H-benzo[e][1,3]oxazin-2-one] | 29.9% | 77.2% | 21% | 81.1%

Source: patent US9416128B2, “Fused heterocyclic compounds as ion channel modulators” (Gilead Sciences, Inc., priority 2013, dated 2016)
